Measured values published in paper PMC7796460, “Relation of Metal-Binding Property and Selective Toxicity of 8-Hydroxyquinoline Derived Mannich Bases Targeting Multidrug Resistant Cancer Cells” (Cancers, 2021).
Read-outs that look alike come from different tables or passages of the source.

Columns and labels:
MES-SA/B1 cells = test: TXRF intracellular iron levels, MES-SA/B1; format: cell-based, human; conditions: for Intracellular iron levels: MES-SA/B1, 25 µM holo-transferrin 4 h, then 5 µM ligand 8 h (Figure 4A)
Method: (§1) Cells were seeded to 6-well plates in a density of 1.5 Mio cells/well and allowed to attach overnight. Following a washing step with phosphate buffered saline (PBS), cells were incubated in serum free DMEM. For the iron-level measurements, cells were preloaded with 25 µM holo-transferrin for 4 h and, after a washing step with serum free DMEM, cells were incubated with 5 µM of each ligand for 8 h. For the detection of copper levels, cells were treated with 1 µM of the ligands in the presence of 5 µM CuCl2 for 4 h. Following incubation, cells were harvested upon trypsination, washed twice with PBS, counted and the resulting pellets were digested in 20 μL of 30% H2O2, 80 μL of 65% HNO3. 10 μL of 15 µg/mL Ga(NO3)3 (in nitric acid) was added as an internal standard upon digestion for 24 h at room temperature. From the resulting solutions, 2 μL were pipetted on the quartz reflectors used for total-reflection X-ray fluorescence (TXRF) analysis. For the determination of the intracellular Cu content, the TXRF method was used as previously reported. Briefly, all determinations were performed on an Atomika 8030C TXRF spectrometer (Atomika Instruments GmbH, Oberschleissheim, Germany). The stock solution of 1000 mg/L Ga was purchased from Merck (Darmstadt, Germany). The Kα line used for determination of Fe and Cu were at 6.403 and 8.047 keV. […] Significance was calculated using unpaired t-tests; results are given as *: p ≤ 0.05, **: p ≤ 0.01, ***: p ≤ 0.001, ****: p ≤ 0.0001.
(§2) Figure 4 Effect of the compounds on intracellular metal levels. (A) Iron levels of MES-SA (open columns) and MES-SA/B1 cells in absence (dark red squared columns) and presence of Pgp inhibitor Tariquidar (bright red squared columns). Cells were loaded with 25 µM holo-transferrin (4 h), followed by an incubation (8 h) without (ctr) or with 5 µM of ligands Q-1, Q-2, Q-3, and Q-4. […] (B) Cellular copper levels measured following a 4 h co-administration of compounds Q-1, Q-2, Q-3, and Q-4 (1 µM) and CuCl2 (5 µM) in MES-SA (open columns), MES-SA/Dx5 (filled columns) and MES-SA-B1 (squared columns) cells. Significance is given as *: p ≤ 0.05, **: p ≤ 0.01, ***: p ≤ 0.001.

MES-SA/Dx5 cells = test: MTT viability assay, MES-SA/Dx5; format: cell-based, human; conditions: for IC50: Homo sapiens, MES-SA/Dx5, Table S1, calculated as ligand equivalents, read-out: IC50 Dx5; for IC50 / SR: absence of TQ; for Effect of co-administration of CuCl2 on toxicity: MDR MES-SA/Dx5, increasing concentrations of CuCl2, MTT 72 h (Figure 2I-L); for Effect of co-incubation with iron(III) on cytotoxicity: MES-SA/Dx5, increasing concentrations of FeCl3, MTT 72 h (Figure 2A-D); for SR: Table S1, IC50 Pgp negative divided by Pgp positive cells; for SR_TQ: Table S1, presence of 1 µM TQ; for Selective toxicity in the presence of 50 µM copper(II): MES-SA vs. MES-SA/Dx5, 50 µM copper(II); for MDR-selective toxicity with excess iron ions: MES-SA vs. MES-SA/Dx5, co-administered FeCl3
Description: (§3) MDCK II canine kidney cells, A431 epidermoid carcinoma cells, the human uterine sarcoma cell lines MES-SA and the doxorubicin selected MES-SA-Dx5 were obtained from ATCC (MDCK II: No. CRL-2936™, A431: No. CRL-1555™, MES-SA: No. CRL-1976™, MES-SA/Dx5: No. CRL-1977™). ABCB1 was expressed in A431 and MES-SA cells using lentiviral transduction. The human cervix carcinoma cell line KB-3-1 and the vinblastine selected KB-v1were kind gifts from Dr. Michael M. Gottesman, National Institutes of Health. The phenotype of the resistant cells was verified using cytotoxicity assays. MDCK-B1 and MDCK-MM were established by the Sleeping Beauty transposon-based gene delivery system. OVCAR-8 and NCI-ADRres cells (obtained from the Division of Cancer Treatment and Diagnosis (DCTD) Tumor Repository (National Cancer Institute, Frederick, MD, USA)) were cultivated in RPMI-1640 (Sigma Aldrich, Budapest, Hungary), and other cell lines were cultivated in Dulbecco’s Modified Eagle Medium (DMEM, Sigma Aldrich, Budapest, Hungary), supplemented with 10% fetal bovine serum, 5 mM glutamine, and 50 unit/mL penicillin and streptomycin (Life Technologies, Carlsbad, CA, USA). All cell lines were cultivated at 37 °C, 5% CO2.
(§4) MTT viability assays were performed as described earlier with minor modifications. Briefly, cells were seeded into 96-well tissue culture plates (Sarstedt, Newton, NC, USA/Orange, Braine-l’Alleud, Belgium) at a density of 5000 cells/well and allowed to attach overnight. Test compounds were added to achieve the required final concentration in a final volume of 100 µL per well. After an incubation period of 72 h, the supernatant was removed and fresh medium containing the MTT reagent (0.083 mg/mL) was added. Incubation with MTT at 37 °C was terminated after 1 h by removing the supernatant and lysing the cells with 100 µL DMSO per well. Viability of the cells was measured spectrophotometrically based on the absorbance values at 540 nm using either a Perkin Elmer Victor X3 or an EnSpire microplate reader. Data were background corrected by subtraction of the signal obtained from unstained cell lysates and normalized to untreated cells. Curves were fitted by Prism software (GraphPad Software Inc., San Diego, CA, USA) using the sigmoidal dose-response model (comparing variable and fixed slopes). […] Significance was calculated using unpaired t-tests; results are given as *: p ≤ 0.05, **: p ≤ 0.01, ***: p ≤ 0.001, ****: p ≤ 0.0001.

[1] = test system: MES-SA, MES-SA/Dx5 and MES-SA/B1 cells; test: TXRF intracellular copper levels; format: cell-based, human; conditions: for Intracellular copper levels: 1 µM ligand with 5 µM CuCl2, 4 h (Figure 4B)
Method: as §1, §2

NCI-ADRres cells = test: MTT viability assay, NCI-ADRres; format: cell-based; conditions: for IC50: Homo sapiens, NCI/ADR-RES, 72 h, MTT 72 h; for SR NCI-ADRres: IC50 OVCAR-8 vs. NCI-ADRres
Description: as §3, §4

MES-SA cells = test: MTT viability assay, MES-SA; format: cell-based, human; conditions: for IC50: Homo sapiens, MES-SA; for Effect of co-administration of CuCl2 on toxicity: parental MES-SA, increasing concentrations of CuCl2, MTT 72 h (Figure 2I-L)
Description: as §3, §4

[2] = IC50 MES-SA vs. MES-SA/Dx5, absence of Tariquidar
[3] = IC50 MES-SA vs. MES-SA/Dx5, presence of 1 µM Tariquidar (brackets)
[4] = Table 2, value in brackets (Tariquidar as in Table 1)
[5] = Table 2, value outside brackets
[6] = presence of 1 µM Tariquidar (values in brackets)
[7] = presence of 1 µM Tariquidar (brackets)
[8] = MTT 72 h, absence of Tariquidar, read-out: IC50 MES-SA
[9] = Table 2, value outside brackets, read-out: MES-SA (toxicity, Table 2)

Row | Compound | Intracellular iron levels (MES-SA/B1 cells) | IC50 (MES-SA/Dx5 cells) [µM] | SR MES-SA/Dx5 (MES-SA/Dx5 cells; [2]) | SR MES-SA/Dx5 (MES-SA/Dx5 cells; [3]) | Effect of co-administration of CuCl2 on toxicity (MES-SA/Dx5 cells) | Effect of co-incubation with iron(III) on cytotoxicity (MES-SA/Dx5 cells) | SR MES-SA/Dx5 (Table 2) (MES-SA/Dx5 cells; [4]) | SR MES-SA/Dx5 (Table 2) (MES-SA/Dx5 cells; [5]) | SR (MES-SA/Dx5 cells) | SR_TQ (MES-SA/Dx5 cells) | Intracellular copper levels [1] | IC50 (NCI-ADRres cells; absence of Tariquidar) [µM] | IC50 (NCI-ADRres cells; [6]) [µM] | SR NCI-ADRres (NCI-ADRres cells; absence of Tariquidar) | SR NCI-ADRres (NCI-ADRres cells; [7]) | IC50 (MES-SA cells; [8]) [µM] | IC50 (MES-SA cells; [9]) [µM] | Effect of co-administration of CuCl2 on toxicity (MES-SA cells) | Selective toxicity in the presence of 50 µM copper(II) (MES-SA/Dx5 cells) | MDR-selective toxicity with excess iron ions (MES-SA/Dx5 cells) | other results
1 | Oc1cccc2cccnc12 [Compound Q-1, 8-Hydroxyquinoline] | negligible | 2.46 ± 0.69 | 1.70 | 1.73 | increased the toxicity | did not influence the cytotoxicity | 1.73 | 1.70 | 1.70 | 1.73 | significantly increased copper levels | 1.84 ± 0.3 | 2.65 | 1.88 | 1.29 | 4.19 ± 0.74 | 4.19 ± 0.74 | increased the toxicity | – | – | –
2 | Oc1c(CN2CCOCC2)ccc2cccnc12 [Compound Q-2, 7-(morpho-lino-methyl)quinolin-8-ol] | – | 3.27 ± 0.39 | 2.13 | 0.85 | increased the toxicity | selectively protected MES-SA/Dx5 cells | 0.85 | 2.13 | 2.13 | 0.85 | significantly increased copper levels | 2.84 ± 0.81 | 5.41 | 1.11 | 0.61 | 6.97 ± 1.75 | 6.97 ± 1.75 | increased the toxicity | – | – | –
3 | Oc1c(CN2CCCCC2)ccc2cccnc12 [Compound Q-3, 7-(piperidin-1-ylmethyl)quinolin-8-ol] | drop of intracellular iron levels below baseline levels | 0.86 ± 0.26 | 4.75 | 0.95 | not further sensitized | selectively protected MES-SA/Dx5 cells | 0.95 | 4.75 | 4.75 | 0.95 | – | 0.68 ± 0.09 | 4.22 | 4.60 | 0.88 | 4.11 ± 1.2 | 4.11 ± 1.2 | selective increase in sensitivity | completely abrogated | significantly reduced | Increase in copper uptake ([1]; 1 µM ligand with 5 µM CuCl2, 4 h): 10 fold
4 | Oc1c(CNCc2ccccc2F)cc(Cl)c2cccnc12 [Compound Q-4, 5-chloro-7-((2-fluorobenzylamino)methyl)quinolin-8-ol] | marked, selective iron depletion | 0.2 ± 0.06 | 13.68 | 0.68 | not further sensitized | selectively protected MES-SA/Dx5 cells | 0.68 | 13.68 | 13.68 | 0.68 | significantly increased copper levels | 0.14 ± 0.07 | 1.15 | 7.84 | – | 2.75 ± 0.46 | 2.75 ± 0.46 | selective increase in sensitivity | completely abrogated | significantly reduced | Intracellular iron depletion in the presence of the Pgp inhibitor TQ (MES-SA/B1 cells; MES-SA/B1, 5 µM ligand 8 h, with Tariquidar): abrogated
